The target of one test is T1, Full length Human HDAC8 (Homo sapiens, UniProt Q9BY41).
T1 construct: Full length Human HDAC8; HIS (N); host or cells: baculovirus expression system
T1 sequence (Q9BY41 1-377): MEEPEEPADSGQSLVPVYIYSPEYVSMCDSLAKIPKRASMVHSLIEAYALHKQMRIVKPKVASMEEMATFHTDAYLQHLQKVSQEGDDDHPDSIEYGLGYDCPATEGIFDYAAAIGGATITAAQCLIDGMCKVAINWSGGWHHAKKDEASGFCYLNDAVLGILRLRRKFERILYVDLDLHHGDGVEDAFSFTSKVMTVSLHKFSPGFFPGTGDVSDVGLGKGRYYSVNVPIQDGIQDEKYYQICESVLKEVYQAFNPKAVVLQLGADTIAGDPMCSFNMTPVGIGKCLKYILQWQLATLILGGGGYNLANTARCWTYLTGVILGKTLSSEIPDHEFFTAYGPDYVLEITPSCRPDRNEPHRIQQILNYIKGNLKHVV
Description: Caliper endpoint assay for HDAC enzymatic activity (HDAC8). To be noted: in vitro enzymatic, 30 min pre-incubation, 1 μM substrate peptide. The test is classed as biochemical.

Another test addresses T2, Full length Human HDAC6 (Homo sapiens, UniProt Q9UBN7).
T2 construct: Full length Human HDAC6; FLAG (C); host or cells: baculovirus expression system
T2 sequence (Q9UBN7 1-1215): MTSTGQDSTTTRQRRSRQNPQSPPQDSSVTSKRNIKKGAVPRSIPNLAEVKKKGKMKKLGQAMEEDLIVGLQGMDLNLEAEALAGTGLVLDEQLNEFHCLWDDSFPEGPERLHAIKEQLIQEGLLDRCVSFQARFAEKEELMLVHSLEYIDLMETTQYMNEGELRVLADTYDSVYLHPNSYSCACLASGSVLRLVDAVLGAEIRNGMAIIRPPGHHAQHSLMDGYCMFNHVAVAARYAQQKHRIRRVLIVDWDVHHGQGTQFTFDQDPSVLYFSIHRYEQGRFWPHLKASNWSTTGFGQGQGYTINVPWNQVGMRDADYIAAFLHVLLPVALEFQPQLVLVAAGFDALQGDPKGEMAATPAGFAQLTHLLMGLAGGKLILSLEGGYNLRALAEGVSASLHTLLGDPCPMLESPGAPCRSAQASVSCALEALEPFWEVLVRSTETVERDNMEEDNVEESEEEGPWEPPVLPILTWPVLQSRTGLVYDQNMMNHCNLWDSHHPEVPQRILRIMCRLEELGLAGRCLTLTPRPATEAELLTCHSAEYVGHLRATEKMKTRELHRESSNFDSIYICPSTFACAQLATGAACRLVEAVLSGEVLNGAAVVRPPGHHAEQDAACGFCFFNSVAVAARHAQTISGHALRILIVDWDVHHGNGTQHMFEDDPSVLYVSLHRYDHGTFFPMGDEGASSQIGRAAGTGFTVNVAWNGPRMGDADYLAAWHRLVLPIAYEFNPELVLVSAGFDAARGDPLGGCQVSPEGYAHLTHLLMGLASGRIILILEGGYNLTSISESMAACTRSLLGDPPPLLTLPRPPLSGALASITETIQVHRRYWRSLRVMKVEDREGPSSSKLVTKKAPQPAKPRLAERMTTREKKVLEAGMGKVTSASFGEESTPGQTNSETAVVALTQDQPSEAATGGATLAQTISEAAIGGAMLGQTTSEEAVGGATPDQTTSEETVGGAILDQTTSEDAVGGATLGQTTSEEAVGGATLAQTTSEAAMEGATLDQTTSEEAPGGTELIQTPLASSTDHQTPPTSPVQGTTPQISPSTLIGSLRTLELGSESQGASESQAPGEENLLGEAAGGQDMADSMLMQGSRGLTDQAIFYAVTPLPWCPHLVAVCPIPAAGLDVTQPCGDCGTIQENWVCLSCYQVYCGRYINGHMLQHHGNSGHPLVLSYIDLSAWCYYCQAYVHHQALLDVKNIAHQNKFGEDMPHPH
Put plainly: Caliper endpoint assay for HDAC enzymatic activity (HDAC6). The format is biochemical. Particulars: for IC50: in vitro enzymatic, Caliper endpoint assay, 30 min pre-incubation, 1 μM substrate peptide; for Selectivity (6 v 8): ratio of HDAC8 IC50/HDAC6 IC50.

`O=C(NO)c1cc(F)c2c(c1)CCN([C@@H]1CC[C@@]13CCOC3)C2` (single isomer, unassigned) [Compound 317] yielded an IC50 on Full length Human HDAC8 of 10000 to 100000 nM. On Full length Human HDAC6, the IC50 is 1 to 100 nM and the “Selectivity (6 v 8)” value is recorded as “IV (IV: >100-1000)”.
The corresponding values for `CC[C@H]1Cc2c(F)cc(C(=O)NO)cc2CN1C1COC1` (single isomer, unassigned) [Compound 601] are 10000 to 100000 nM, 1 to 100 nM and “IV (IV: >100-1000)”.
The corresponding values for `CN1CCC[C@@]2(CC[C@@H]2N2CCc3cc(C(=O)NO)cc(F)c3C2)C1` (single isomer, unassigned) [Compound 364] are 10000 to 100000 nM, 1 to 100 nM and “IV (IV: >100-1000)”.
With `O=C(NO)c1ccc2c(c1)C[C@@H]1COCCN1C2` [Compound 131], the IC50 against Full length Human HDAC8 fell in the range of 1000 to 10000 nM. On Full length Human HDAC6, the IC50 was 100 to 1000 nM and the “Selectivity (6 v 8)” value was “III (III: >10-100)”.
Turning to `CC(=O)N1CCC[C@]2(C1)C[C@@H](N1CCc3cc(C(=O)NO)cc(F)c3C1)C2` (single isomer, unassigned) [Compound 349, 2-(6-acetyl-6-azaspiro[3.5]nonan-2-yl)-8-fluoro-3,4-dihydro-1H-isoquinoline-6-carbohydroxamic acid], the values for the IC50 on Full length Human HDAC8 and on Full length Human HDAC6 were 10000 to 100000 nM and 1 to 100 nM, respectively. Also, the “Selectivity (6 v 8)” value at Full length Human HDAC6 is listed as “IV (IV: >100-1000)”.
Consider `O=C(NO)c1ccc2c(c1)CCN1CCCC[C@@H]21` [Compound 89], for which the concentration for half-maximal inhibition (IC50) on Full length Human HDAC8 lay within 1000 to 10000 nM. In addition, on Full length Human HDAC6, the half-maximal inhibitory concentration (IC50) lay within 1000 to 10000 nM and the “Selectivity (6 v 8)” value is on record as “II (II: >1-10)”.
Compound `O=C(NO)c1cc(F)c2c(c1)CCN([C@H]1CCNC3(CCC3)C1)C2` (single isomer, unassigned) [Compound 435] gave an IC50 against Full length Human HDAC8 of 1000 to 10000 nM. At Full length Human HDAC6, the IC50 was in the range of 1 to 100 nM and the “Selectivity (6 v 8)” value was “IV (IV: >100-1000)”.
Compound `NC12CC(CN3CCc4cc(C(=O)NO)cc(F)c4C3)(C1)C2` [Compound 486, 2-[(3-amino-1-bicyclo[1.1.1]pentanyl)methyl]-8-fluoro-3,4-dihydro-1H-isoquinoline-6-carbohydroxamic acid] had an IC50 at Full length Human HDAC8 of 10000 to 100000 nM. Also, on Full length Human HDAC6, the half-maximal inhibitory concentration (IC50) lay within 1 to 100 nM and the “Selectivity (6 v 8)” value is on record as “IV (IV: >100-1000)”.
As to `C[C@@H]1C[C@H]2c3c(F)cc(C(=O)NO)cc3CCN2C1` (single isomer, unassigned) [Compound 152], the values for the IC50 against Full length Human HDAC8 and on Full length Human HDAC6 were 1000 to 10000 nM and 1 to 100 nM, respectively.
`O=C(NO)c1ccc2c(c1)CCN1CCC[C@H]21` [Compound 148] had an IC50 against Full length Human HDAC8 of 1000 to 10000 nM. Further, on Full length Human HDAC6, the IC50 was in the range of 1000 to 10000 nM and the “Selectivity (6 v 8)” value is listed as “II (II: >1-10)”.
For the compound `CC[C@H](c1ccc(C(=O)NO)cc1F)N1CCC2(CCCCC2)C1` (single isomer, unassigned) [Compound 238], the IC50 against Full length Human HDAC8 lay within 1000 to 10000 nM; against Full length Human HDAC6, 100 to 1000 nM. Besides, the “Selectivity (6 v 8)” value on Full length Human HDAC6 is “III (III: >10-100)”.
For the compound `O=C(NO)c1cc(F)c2c(c1)CCN(C[C@H]1CCC3(CCCCC3)C1)C2` (single isomer, unassigned) [Compound 108], the values for the IC50 at Full length Human HDAC8 and on Full length Human HDAC6 were 10000 to 100000 nM and 1 to 100 nM, respectively.
On Full length Human HDAC8, `O=C(NO)c1cc(F)c2c(c1)CCN([C@H]1CCOC3(CCC3)C1)C2` (single isomer, unassigned) [Compound 445] had an IC50 of 10000 to 100000 nM. Further, at Full length Human HDAC6, the IC50 was in the range of 1 to 100 nM and the “Selectivity (6 v 8)” value is “IV (IV: >100-1000)”.
As to `CC[C@H]1Cc2c(F)cc(C(=O)NO)cc2CN1C1CC2(CCN(C(C)=O)CC2)C1` (single isomer, unassigned) [Compound 603], the 50% inhibitory concentration (IC50) at Full length Human HDAC8 lay within 10000 to 100000 nM. For the same compound, on Full length Human HDAC6, the 50% inhibitory concentration (IC50) was 100 to 1000 nM and the “Selectivity (6 v 8)” value was “IV (IV: >100-1000)”.
The matching figures for `O=C(NO)c1ccc2c(c1)CCN1CCC[C@@H]21` [Compound 149]: 1000 to 10000 nM, 100 to 1000 nM and “II (II: >1-10)”.
For the compound `CC[C@H]1Cc2c(F)cc(C(=O)NO)cc2CN1C1CC2(CCN(C)CC2)C1` (single isomer, unassigned) [Compound 595], the IC50 at Full length Human HDAC8 lay in the range of 10000 to 100000 nM. Further, at Full length Human HDAC6, the half-inhibitory concentration (IC50) was in the range of 100 to 1000 nM and the “Selectivity (6 v 8)” value is listed as “IV (IV: >100-1000)”.
For `CC[C@@H]1Cc2c(F)cc(C(=O)NO)cc2CN1C1CC2(CCN(C)CC2)C1` (single isomer, unassigned) [Compound 594], the IC50 on Full length Human HDAC8 is over 100000 nM; against Full length Human HDAC6, 1 to 100 nM. Moreover, the “Selectivity (6 v 8)” value at Full length Human HDAC6 was “V (V: >1000)”.
Consider `CN1CCC2(CCC(N3CCc4cc(C(=O)NO)cc(F)c4C3)C2)CC1` (stereo not drawn) [Compound 417, 8-fluoro-N-hydroxy-2-(8-methyl-8-azaspiro[4.5]decan-2-yl)-1,2,3,4-tetrahydroisoquinoline-6-carboxamide], for which the IC50 fell in the range of 10000 to 100000 nM against Full length Human HDAC8 and 1 to 100 nM against Full length Human HDAC6. In addition, the “Selectivity (6 v 8)” value at Full length Human HDAC6 is “IV (IV: >100-1000)”.
Consider `C[C@@H]1C[C@@H]2c3c(F)cc(C(=O)NO)cc3CCN2C1` (single isomer, unassigned) [Compound 151], for which the half-inhibitory concentration (IC50) fell in the range of 1000 to 10000 nM on Full length Human HDAC8 and 1 to 100 nM against Full length Human HDAC6.
Consider `O=C(NO)c1cc(F)c2c(c1)C[C@H]1CCCN1C2` [Compound 120], for which the 50% inhibitory concentration (IC50) lay within 1000 to 10000 nM on Full length Human HDAC8 and 1 to 100 nM on Full length Human HDAC6. Besides, the “Selectivity (6 v 8)” value on Full length Human HDAC6 was “IV (IV: >100-1000)”.
For the compound `CC(=O)N1CC2(C[C@H](N3CCc4cc(C(=O)NO)cc(F)c4C3)CCO2)C1` (single isomer, unassigned) [Compound 453], the half-inhibitory concentration (IC50) at Full length Human HDAC8 was in the range of 10000 to 100000 nM; against Full length Human HDAC6, 1 to 100 nM. Also, the “Selectivity (6 v 8)” value at Full length Human HDAC6 is “IV (IV: >100-1000)”.
The corresponding values for `CC[C@@H]1Cc2c(F)cc(C(=O)NO)cc2CN1C[C@]12C[C@H](CO1)N(C)C2` (single isomer, unassigned) [Compound 554] are 1000 to 10000 nM, 1 to 100 nM and “IV (IV: >100-1000)”.
Regarding `CC[C@H]1Cc2c(F)cc(C(=O)NO)cc2CN1C1CCCC1` (single isomer, unassigned) [Compound 581], the half-maximal inhibitory concentration (IC50) on Full length Human HDAC8 was 10000 to 100000 nM; against Full length Human HDAC6, 100 to 1000 nM. For the same compound, the “Selectivity (6 v 8)” value on Full length Human HDAC6 is “III (III: >10-100)”.
In the case of `O=C(NO)c1cc(F)c2c(c1)CCN(C1CCC3(CNC3)C1)C2` (stereo not drawn) [Compound 388, 8-fluoro-N-hydroxy-2-(2-azaspiro[3.4]octan-6-yl)-1,2,3,4-tetrahydroisoquinoline-6-carboxamide], the half-inhibitory concentration (IC50) at Full length Human HDAC8 fell in the range of 10000 to 100000 nM; against Full length Human HDAC6, 1 to 100 nM. In addition, the “Selectivity (6 v 8)” value at Full length Human HDAC6 is “IV (IV: >100-1000)”.
Regarding `O=C(NO)c1ccc2c(c1F)CCN(C1CC3(CCCCC3)C1)C2` [Compound 506, 5-fluoro-N-hydroxy-2-(spiro[3.5]nonan-2-yl)-1,2,3,4-tetrahydroisoquinoline-6-carboxamide], at Full length Human HDAC8, the 50% inhibitory concentration (IC50) lay within 10000 to 100000 nM. Moreover, on Full length Human HDAC6, the 50% inhibitory concentration (IC50) is over 100000 nM and the “Selectivity (6 v 8)” value was “V (V: >1000)”.
On Full length Human HDAC8, `CN1CCC[C@]2(C1)C[C@@H](N1CCc3cc(C(=O)NO)cc(F)c3C1)C2` (single isomer, unassigned) [Compound 343, 8-fluoro-N-hydroxy-2-((2r,4s)-6-methyl-6-azaspiro[3.5]nonan-2-yl)-1,2,3,4-tetrahydroisoquinoline-6-carboxamide] came in with an IC50 of 10000 to 100000 nM. On Full length Human HDAC6, the IC50 is 1 to 100 nM and the “Selectivity (6 v 8)” value was “IV (IV: >100-1000)”.

As usually defined, the IC50 is the midpoint of a concentration-inhibition curve.
